# Peptide text beside a SMILES is read from it.
# Experiments:
# FBXO44^FBA [1] = target: T1, FBXO44^FBA (Homo sapiens, UniProt Q9H4M3); test: Surface plasmon resonance, immobilized RGS2^5–16 peptide; conditions: Biacore X100; peptide immobilized on CM5 chip by amine coupling; FBXO44^FBA analyte 0.29–75 μM, contact time 60 s; nonlinear fit of saturation binding; preliminary
# T1 construct: we expressed and purified only this domain for all in vitro studies; 6xHis (N, cleaved yes); MBP (N, cleaved yes); made in house; host or cells: Escherichia coli Rosetta BL21 (λDE3)
# T1 sequence (Q9H4M3 71-252 limits assumed): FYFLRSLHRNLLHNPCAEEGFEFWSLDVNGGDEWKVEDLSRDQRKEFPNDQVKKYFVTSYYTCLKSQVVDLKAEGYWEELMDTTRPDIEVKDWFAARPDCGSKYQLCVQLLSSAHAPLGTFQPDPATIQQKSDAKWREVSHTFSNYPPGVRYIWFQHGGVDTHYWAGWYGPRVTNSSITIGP
# Description: (§1) However, evidence of a direct interaction between RGS2 and FBXO44 has, until now, not yet been established. Thus, we first aimed to verify that purified FBXO44 would bind the degron sequence in vitro. […] This also circumvented the issue that full-length FBXO44 (as well as all other F-box proteins) is very difficult to express in the absence of an adaptor protein, such as Skp1 ([30]). To test the ability of the FBA domain to bind the RGS2 degron specifically, a peptide corresponding to residues Met^5–Met^16 (MFLAVQHDRCPM; herein referred to as RGS2^5–16; Fig. 1A) was dotted onto a polyvinylidene difluoride (PVDF) membrane at increasing amounts (Fig. 1B). […] The membrane was then incubated with FLAG-tagged FBXO44 FBA domain (FBXO44^FBA) and subjected to immunoblotting using a FLAG antibody. […] To get an estimate of the binding affinity between FBXO44^FBA, we next performed surface plasmon resonance (SPR) with the RGS2^5–16 peptide anchored on the chip and FBXO44^FBA as the analyte.
# RGS2^5–16 peptide was immobilized onto a CM5 chip (Cytiva; BR100012) using amine coupling (Cytiva; BR100557) following the manufacturer's protocol. RGS2^5–16 peptide (150 μg/ml) in 10 mM NaOAc, pH 4.0, was loaded into the Biacore X100 sample rack. […] The RU at equilibrium was subtracted from the nonspecific binding detected in Fc1 and measured for each concentration. […]
# FBXO44^FBA [2] = target: T1, FBXO44^FBA; test: Dot blot of FLAG-FBXO44^FBA binding to immobilized peptide; conditions: peptide spotted on PVDF at increasing amounts; 2 μg/ml FLAG-FBXO44^FBA overnight at 4 °C; anti-FLAG
# Description: as §1
# Figure 1 A peptide representing the degron in RGS2 binds FBXO44^FBAin vitro.A, sequence and schematic of the RGS2^5–16 peptide. B, a representative dot blot showing binding of FBXO44^FBA to immobilized RGS2^5–16 peptide. […] The RU at equilibrium was subtracted from the nonspecific binding detected in Fc1 and measured for each concentration. […]
Kd (FBXO44^FBA [1]) [nM],FLAG immunoreactivity (FBXO44^FBA binding) (FBXO44^FBA [2]),Compound
2090,–,CSCC[C@H](NC(=O)[C@@H]1CCCN1C(=O)[C@H](CCCNC(=N)N)NC(=O)[C@H](CS)NC(=O)[C@H](CC(=O)O)NC(=O)[C@H](Cc1c[nH]cn1)NC(=O)[C@H](CCC(N)=O)NC(=O)[C@@H](NC(=O)[C@H](C)NC(=O)[C@H](CC(C)C)NC(=O)[C@H](Cc1ccccc1)NC(=O)[C@@H](N)CCSC)C(C)C)C(=O)O [RGS2^5–16] (H-MFLAVQHDCRPM-OH)
–,no signal detected,"MCKGLAALPAT [RGS4^1–11, peptide corresponding to the first 11 residues in RGS4, negative control]"

# From paper PMC12554172, “Systematic analysis of the RGS2 degron reveals characteristics of substrate recognition by the F-box protein FBXO44” (The Journal of Biological Chemistry, 2025)
